These results are taken from patent publication US11739099B2 (CURIA IP HOLDINGS, LLC, priority 2014, dated 2023).

Data set [1] can be described thus: Solid-state change of Rifaximin α form on wet granulation with purified water. The class given is physicochemical. To be noted: purified water as binding agent.
Data set [2] in a line: Solid-state stability of the α/β ratio after dry granulation and tableting, DRX (powder). The class given is physicochemical. To be noted: tablets before coating, ground in a mortar.
For data set [3] the following is noted: literature studies (Cellai et al. 1983; Viscomi et al. 2008); cited from earlier work.

As for `CO[C@H]1/C=C/O[C@@]2(C)Oc3c(C)c(O)c4c(O)c(c5c(nc6cc(C)ccn65)c4c3C2=O)NC(=O)/C(C)=C\C=C\[C@H](C)[C@H](O)[C@@H](C)[C@@H](O)[C@@H](C)[C@H](OC(C)=O)[C@@H]1C` [Rifaximin α form, Rifaximin], the “Amount of Rifaximin β form afforded by wet granulation” value in data set [1] is listed as < 50%.
“Rifaximin [Rifaximin α/β polymorphic mixture 88/12]”: in data set [2], the “Relative ratio between the α/β polymorphic form after dry granulation and tableting” value is “stable”.
Consider Rifaximin [δ], for which the “Absorption from the intestine” value in data set [3] is “could be significantly absorbed”.
